This passage reports Inhibition rate and Activation rate results from patent US9278118B2, “Pharmaceutical combination for the treatment and/or chemosensibilization of refractory tumors to anticancer drugs” (Centro de Ingenieria Genetica Y Biotecnologia, priority 2006, dated 2016).

Experiment [1] concerns Nucleofosmin. The experiment is described as follows: P15-regulated protein profile, nuclear extracts of H-125 cells. The experiment is classed as cell-based, human. As to conditions: down-regulated Nucleofosmin, P15 40 minutes.
The test system of experiment [2] is T-Plastin. The description is as above. The experiment is classed as cell-based, human. The following applies: down-regulated T-Plastin, P15 40 minutes.
The subject of experiment [3] is Y-box1 transcription factor. The experiment is described as above. As to conditions: down-regulated Y-box1 transcription factor, P15 40 minutes. The experiment is classed as cell-based, human.
Experiment [4] has as its system Eritropoietin precursor. The experiment is described as above. The experiment is classed as cell-based, human. The following applies: down-regulated Eritropoietin precursor, P15 40 minutes.
For experiment [5], the system named is Gliceraldehyde 6-phosphate deshydrogenase. The following applies: down-regulated Gliceraldehyde 6-phosphate deshydrogenase; H-125 cells, P15 40 minutes. The method, then:
(§1) H-125 cells were treated or not with the P15 peptide ingredient of the pharmaceutical combination described in this invention during 40 minutes. Subsequently, cell monolayers were washed with PBS and cells were scrapped from the surface. […] To analyze the P15-regulated proteins, the respective nuclear protein extracts were alternatively solved by 2D bidimensional gels (pH 4-7) and/or Liquid chromatography (nano HPLC) coupled to Mass spectrometer.
(§2) For this purpose, nuclear protein extracts coming from H-125 cells treated or not with the P15 peptide ingredient were analyzed as previously described in this invention.

Experiment [6] has as its system Glucose-6-phosphate isomerase. As to conditions: down-regulated Glucose-6-phosphate isomerase; H-125 cells, P15 40 minutes. As to the method:
as §1, §2

The test system of experiment [7] is Heat Shock Proteins (HSP-27, -70 y -90). As to conditions: down-regulated Heat Shock Proteins (HSP-27, -70 y -90); H-125 cells, P15 40 minutes. The method, then:
as §1, §2

The test system of experiment [8] is Piruvate kinase. As to conditions: down-regulated Piruvate kinase; H-125 cells, P15 40 minutes. The method, then:
as §1, §2

Experiment [9] relates to Proteasome activator complex. The following applies: down-regulated Proteasome activator complex; H-125 cells, P15 40 minutes. As to the method: as §1, §2
Experiment [10] relates to S-gluthathione transferase. As to conditions: down-regulated S-gluthathione transferase; H-125 cells, P15 40 minutes. The method, then:
as §1, §2

The subject of experiment [11] is Tubulin alpha-1. As to conditions: up-regulated Tubulin alpha-1; H-125 cells, P15 40 minutes. The method, then:
as §1, §2

Experiment [12] relates to Tubulin beta-2. The following applies: up-regulated Tubulin beta-2; H-125 cells, P15 40 minutes. As to the method:
as §1, §2

The test system of experiment [13] is Tubulin beta-3. As to conditions: up-regulated Tubulin beta-3; H-125 cells, P15 40 minutes. The method, then:
as §1, §2

Experiment [14] deals with Ubiquitin activated E1 enzyme. The following applies: down-regulated Ubiquitin activated E1 enzyme; H-125 cells, P15 40 minutes. The method, then: as §1, §2
The subject of experiment [15] is Translational controled tumor protein. The experiment is described as follows: P15-regulated protein profile, nuclear extracts of H-125 cells. It is filed as cell-based, human. The following applies: down-regulated Translational controled tumor protein, P15 40 minutes.
Experiment [16] has as its system Prohibitin. Described as above. It is filed as cell-based, human. The following applies: up-regulated Prohibitin, P15 40 minutes.

On to CWMSPRHLGTC [P15], for which the Inhibition rate is given as 48 in experiment [1]; 3.34 in [2]; 3.33 in experiment [3]; 120 in experiment [4]; 6.62 in [5]; 8.53 in [6]. Moreover, the Inhibition rate was determined as 2.5 in [7]; 8.34 in experiment [8]; 3.35 in experiment [9]; 4.87 in experiment [10]; 2.49 in experiment [14]; 4.32 in [15]. For the same sequence, the Activation rate in experiment [11] is 3.23; in experiment [12], 2.56; in experiment [13] it was 3.15; in experiment [16], 2.28.
